Reference: ChEMBL document CHEMBL1127743, “Structure-based design of HIV-1 protease inhibitors: replacement of two amides and a 10 pi-aromatic system by a fused bis-tetrahydrofuran” (J Med Chem, 1994)

How the values were obtained:
[1] = biological target: Human immunodeficiency virus type 1 protease (Human immunodeficiency virus 1, UniProt Q72874); experiment: Tested for inhibitory activity against HIV protease enzyme
[2] = biological target: Human immunodeficiency virus type 1 protease (Human immunodeficiency virus 1) (UniProt Q72874)
Description: Tested for antiviral potency against HIV protease enzyme

## CC(C)(C)NC(=O)[C@@H]1C[C@@H]2CCCC[C@@H]2CN1C[C@@H](O)[C@H](Cc1ccccc1)NC(=O)O[C@@H]1CO[C@@H]2OCC[C@@H]21
[1]
  IC50: 6.4 nM
[2]
  IC95: 200 nM
